The values that follow come from US20110152166A1, “METHOD OF MODULATION OF PROTEIN PHOSPHORYLATION-DEPENDENT CONFORMATIONAL TRANSITIONS WITH LOW MOLECULAR WEIGHT COMPOUNDS” (priority 2006, published 2011).

In one assay the target is T1, GST-PDK1 [Phe157Leu] (Homo sapiens, UniProt O15530, F157L).
T1 construct: different protein constructs, comprising the full length protein or the catalytic domain alone; made in house; host or cells: HEK293 cells (pEBG-2T-PDK1 mutant)
Kind of assay: PDK1 activity assay with T308tide. The assay is classed as biochemical.

The target in assay [1] is T2, PDK1 catalytic domain (50-360) (Homo sapiens, UniProt O15530).
T2 construct: the catalytic domain of PDK1 (50-359) produced in SF9 insect cells; His-tag (N, cleaved yes); made in house; host or cells: SF9 insect cells (baculovirus)
Kind of assay: TNP-ATP/PDK1 fluorescence, conformation of the ATP binding site. Here is the method: FIG. 5—Modulation of PDK1 conformation by phosphopeptides and small compounds. Effect of P-HM-polypeptides and compound 1 on the emission fluorescence of trinitrophenyl-ATP (TNP-ATP)/PDK1. The fluorescence emission spectra from TNP-ATP were recorded in the presence or absence of P-HM-polypeptides, PIFtide and compound 1. (A) Effect of P-HM-RSK (65 μM) on the fluorescence by TNP-ATP. (B) Effect of compound 1 on the fluorescence emission from TNP-ATP. Fluorescence intensities are expressed as %. […] The effect of P-HM-PKB was identical to that by P-HM-RSK.
The activation of PDK1 by P-HM-polypeptides and small compounds is due to a change in the conformation of the enzyme. We probed the conformation of the ATP binding site in PDK1 by scanning the steady-state fluorescence of TNP-ATP/PDK1, in the presence or absence of P-HM-polypeptides, PIFtide, or small molecular weight compounds. Data were obtained in a Varian Cary Eclipse spectrofluorometer (excitation γ=479 nm; emission scanning, γ=500-600 nm; excitation slit=10 nm; emission slit=10 nm) at a rate of 200 nm/min, with 150 datapoints/100 nm scanning and 0.3 s averaging time. […] Non-phosphorylated HM-polypeptides increased the fluorescence intensity of TNP-ATP in the absence of PDK1 and were not used in the study. […]

In a further assay the target is T3, PDK1 (Homo sapiens, UniProt O15530).
T3 sequence (O15530 1-556): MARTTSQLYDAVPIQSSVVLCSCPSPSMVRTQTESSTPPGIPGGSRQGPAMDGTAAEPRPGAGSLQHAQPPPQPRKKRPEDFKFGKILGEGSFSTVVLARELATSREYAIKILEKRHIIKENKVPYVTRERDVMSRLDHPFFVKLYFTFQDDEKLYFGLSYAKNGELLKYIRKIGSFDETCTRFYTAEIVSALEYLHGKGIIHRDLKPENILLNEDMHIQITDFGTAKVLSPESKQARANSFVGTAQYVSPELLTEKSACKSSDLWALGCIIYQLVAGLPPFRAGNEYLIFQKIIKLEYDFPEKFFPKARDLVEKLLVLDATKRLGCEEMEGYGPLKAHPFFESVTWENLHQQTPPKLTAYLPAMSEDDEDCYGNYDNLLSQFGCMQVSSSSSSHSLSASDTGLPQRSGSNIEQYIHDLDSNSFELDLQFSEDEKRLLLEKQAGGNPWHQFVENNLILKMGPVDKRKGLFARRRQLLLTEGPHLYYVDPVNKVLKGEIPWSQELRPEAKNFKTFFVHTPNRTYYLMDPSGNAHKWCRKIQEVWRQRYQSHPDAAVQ
The following applies: in the presence of PIFtide (Biondi et al., 2000); cited from earlier work.

Ends that are not written are not given here.

T1 sequence (O15530 whole entry F157L, the tested form may be a part): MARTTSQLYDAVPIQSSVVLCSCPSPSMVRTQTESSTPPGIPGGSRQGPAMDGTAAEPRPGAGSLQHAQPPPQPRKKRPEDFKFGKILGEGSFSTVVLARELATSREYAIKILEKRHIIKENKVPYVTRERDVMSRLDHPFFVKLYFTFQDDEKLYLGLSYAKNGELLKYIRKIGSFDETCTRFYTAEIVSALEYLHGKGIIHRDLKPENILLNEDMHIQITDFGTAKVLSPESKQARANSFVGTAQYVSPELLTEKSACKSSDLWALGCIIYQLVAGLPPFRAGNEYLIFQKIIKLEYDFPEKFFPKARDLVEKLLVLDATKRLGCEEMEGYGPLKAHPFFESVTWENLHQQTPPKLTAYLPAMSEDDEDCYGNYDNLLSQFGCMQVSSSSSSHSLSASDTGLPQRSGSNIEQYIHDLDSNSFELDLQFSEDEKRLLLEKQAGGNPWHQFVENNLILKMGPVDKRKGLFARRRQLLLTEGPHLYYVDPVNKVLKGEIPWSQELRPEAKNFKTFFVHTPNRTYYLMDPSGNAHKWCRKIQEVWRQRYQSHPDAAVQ

For orientation: AC50 means the concentration giving half of the maximal activity seen. On GST-PDK1 [Phe157Leu], “REPRILSEEEQEMFRDFDYIADWC [PIFtide, reference compound]” yielded an AC50 of 320 ± 190 nM and a Max. activity of 1.4 ± 0.14 U/mg. Further, the “effect on TNP-ATP/PDK1 fluorescence (in words)” value in assay [1] (40 μM TNP-ATP, 15 μM PDK1) is “decreased the intensity”. Further, the Emax in assay [1] (at 10 times the value of its Kd for PDK1, read-out: maximal effect on TNP-ATP fluorescence intensity) stood at 65%. In addition, the “increase of PDK1 stability to temperature” value on PDK1 is 10 °C.
